Laboratory results published in the supplement of paper PMC10307832.

Key:
Assay in all cases: relative viability (nuclei count vs DMSO), 5 days (fraction); higher = more cells survive
[1] = compound: CN(C)C[C@@H]1CCn2cc(c3ccccc32)C2=C(C(=O)NC2=O)c2cn(c3ccccc23)CCO1 [Ruboxistaurin] + CC(C)C[C@H](NC(=O)[C@H](Cc1ccccc1)NC(=O)c1cnccn1)B(O)O [Bortezomib] (partner 0.002 µM)
Outline: (§1)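 Five library-drug doses in √10 steps were combined with a fixed anchor-drug dose, or a single drug was given alone, by pin tool to lung cancer cell lines in 1536-well plates the day after seeding. Nuclei were stained and counted after 5 days. Relative viability is the nuclei count in treated wells over that in vehicle wells, taken as the median of duplicate plates.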

[2] = compound: CN(C)C[C@@H]1CCn2cc(c3ccccc32)C2=C(C(=O)NC2=O)c2cn(c3ccccc23)CCO1 [Ruboxistaurin] + Nc1nc2[nH]cc(CCc3ccc(C(=O)N[C@@H](CCC(=O)O)C(=O)O)cc3)c2c(=O)[nH]1 [Pemetrexed] (partner 0.2 µM)
Outline: as §1

[3] = compound: CN(C)C[C@@H]1CCn2cc(c3ccccc32)C2=C(C(=O)NC2=O)c2cn(c3ccccc23)CCO1 [Ruboxistaurin] + Nc1ncn([C@H]2C[C@H](O)[C@@H](CO)O2)c(=O)n1 [Decitabine] (partner 2 µM)
Outline: as §1

[4] = compound: CN(C)C[C@@H]1CCn2cc(c3ccccc32)C2=C(C(=O)NC2=O)c2cn(c3ccccc23)CCO1 [Ruboxistaurin] + COc1cccc2cc(-c3nc([C@H]4CC[C@H](C(=O)O)CC4)n4ncnc(N)c34)[nH]c12 [OSI-027] (partner 0.5 µM)
Outline: as §1

[5] = compound: CN(C)C[C@@H]1CCn2cc(c3ccccc32)C2=C(C(=O)NC2=O)c2cn(c3ccccc23)CCO1 [Ruboxistaurin] + C[C@@H](Oc1cc(-c2cnn(C3CCNCC3)c2)cnc1N)c1c(Cl)ccc(F)c1Cl [Crizotinib] (partner 1 µM)
Outline: as §1

Row | Cell Line | relative viability ([1]; first compound 0.08 µM) | relative viability ([1]; first compound 0.8 µM) | relative viability ([1]; first compound 2.53 µM) | relative viability ([1]; first compound 8 µM) | relative viability ([2]; first compound 0.08 µM) | relative viability ([2]; first compound 0.8 µM) | relative viability ([2]; first compound 2.53 µM) | relative viability ([2]; first compound 8 µM) | relative viability ([3]; first compound 0.08 µM) | relative viability ([3]; first compound 0.8 µM) | relative viability ([3]; first compound 2.53 µM) | relative viability ([3]; first compound 8 µM) | relative viability ([4]; first compound 0.08 µM) | relative viability ([4]; first compound 0.8 µM) | relative viability ([4]; first compound 2.53 µM) | relative viability ([4]; first compound 8 µM) | relative viability ([5]; first compound 0.08 µM) | relative viability ([5]; first compound 0.8 µM) | relative viability ([5]; first compound 2.53 µM) | relative viability ([5]; first compound 8 µM)
1 | HCC-366 | 1.05 | 1.05 | 1.05 | 0.986 | 0.181 | 0.182 | 0.158 | 0.209 | 0.361 | 0.351 | 0.325 | 0.317 | 0.965 | 0.675 | 0.869 | 0.411 | 0.58 | 0.518 | 0.605 | 0.536
2 | HCC-827 | 1.01 | 1.01 | 1.06 | 1.14 | 0.265 | 0.252 | 0.268 | 0.28 | 0.349 | 0.344 | 0.376 | 0.319 | 0.889 | 0.82 | 0.772 | 0.605 | 0.977 | 0.907 | 1.01 | 0.96
3 | HOP-62 | 0.736 | 0.536 | 0.734 | 0.642 | 0.299 | 0.241 | 0.298 | 0.31 | 0.21 | 0.242 | 0.251 | 0.268 | 0.884 | 0.783 | 0.826 | 0.753 | 0.882 | 1.05 | 0.741 | 1.05
4 | IA-LM | 0.891 | 0.669 | 1.1 | 0.98 | – | – | – | – | – | – | – | – | – | – | – | – | 1.01 | – | 0.967 | 0.938
5 | LC-2-ad | 1.17 | 0.929 | 1.15 | 1.06 | 0.259 | 0.284 | 0.285 | 0.282 | 0.71 | 0.887 | 0.753 | 0.847 | 0.935 | 0.842 | 0.86 | 0.781 | 0.458 | 0.406 | 0.476 | 0.638
6 | LCLC-97TM1 | 0.845 | 0.487 | 0.58 | 0.685 | 0.193 | 0.172 | 0.198 | 0.16 | 0.179 | 0.191 | 0.278 | 0.231 | 0.508 | 0.547 | 0.482 | 0.243 | 0.358 | – | 0.474 | 0.404
7 | LCLC-103H | 1.19 | 1.12 | 0.968 | 1.01 | 0.47 | 0.479 | 0.434 | 0.608 | 0.805 | 0.648 | 0.726 | 0.699 | 0.46 | 0.384 | 0.407 | 0.357 | 1.21 | 0.929 | 0.905 | 1.01
8 | LK-2 | – | – | – | – | 0.266 | 0.346 | 0.309 | 0.242 | 0.356 | 0.315 | 0.402 | 0.238 | 0.224 | 0.222 | 0.158 | 0.158 | 0.249 | 0.242 | 0.278 | 0.257
9 | NCI-H358 | – | – | – | – | 0.171 | 0.175 | 0.177 | 0.162 | 0.227 | 0.205 | 0.246 | 0.256 | 0.95 | 0.642 | 0.787 | 0.471 | 0.518 | 0.517 | 0.609 | 0.573
10 | NCI-H727 | 0.974 | 0.85 | 0.986 | 0.69 | – | – | – | – | 0.862 | 0.839 | 0.976 | 0.639 | 0.764 | 0.416 | 0.523 | 0.448 | 0.789 | 0.696 | 0.693 | 0.745
11 | NCI-H1395 | – | – | – | – | 1.04 | 0.768 | 0.917 | 0.782 | 0.666 | 0.667 | 0.781 | 0.686 | 0.653 | 0.647 | 0.662 | 0.597 | – | – | – | –
12 | NCI-H1563 | 0.871 | 0.763 | 0.933 | 0.775 | 0.831 | 0.724 | 0.987 | 0.656 | – | – | – | – | 0.796 | 0.748 | 0.694 | 0.66 | 0.947 | 0.873 | 0.938 | 0.741
13 | NCI-H1703 | 0.401 | 0.319 | 0.382 | 0.237 | – | – | – | – | – | – | – | – | – | – | – | – | 0.662 | 0.574 | 0.582 | 0.322
14 | NCI-H1793 | – | – | – | – | 1.13 | – | 1.03 | 0.876 | 0.461 | – | 0.614 | 0.549 | 0.262 | 0.239 | 0.273 | 0.265 | – | – | – | –
15 | NCI-H1944 | – | – | – | – | 0.6 | 0.55 | 0.667 | 0.659 | 0.439 | 0.403 | 0.405 | 0.46 | 0.411 | 0.334 | 0.404 | 0.271 | 1.15 | 1.01 | 1.06 | 1.03
16 | NCI-H2170 | – | – | – | – | 0.274 | 0.263 | 0.248 | 0.303 | 0.464 | 0.472 | 0.509 | 0.458 | 0.736 | 0.599 | 0.67 | 0.536 | 1.15 | 1.13 | 1.2 | 1.21
17 | NCI-H2228 | 1.33 | 0.708 | 1.08 | 0.941 | 0.387 | 0.335 | 0.337 | 0.322 | – | – | – | – | 0.6 | 0.439 | 0.549 | 0.281 | 0.453 | 0.427 | 0.316 | 0.3
18 | NCI-H2342 | – | – | – | – | 0.793 | 0.825 | 0.874 | 0.817 | 0.689 | 0.737 | 0.757 | 0.819 | 0.678 | 0.672 | 0.608 | 0.698 | – | – | – | –
19 | SK-MES-1 | – | – | – | – | 0.997 | 0.899 | 1.01 | 0.863 | 0.382 | 0.363 | 0.389 | 0.427 | 0.676 | 0.554 | 0.525 | 0.327 | 1.06 | 1.03 | 0.979 | 0.972
20 | SW 900 | – | – | – | – | 0.479 | 0.421 | 0.489 | 0.491 | 0.4 | 0.395 | 0.5 | 0.566 | 0.555 | 0.5 | 0.593 | 0.422 | – | – | – | –
